BindingDB's records for doi:10.1124/jpet.102.047092 (Case Western Reserve University, 2003)

What was measured:
Histamine H4 receptor = Histamine H4 receptor (Homo sapiens, UniProt Q9H3N8)
[1] = biological target: 5-hydroxytryptamine receptor 1B (Homo sapiens, UniProt P28222)
Oxytocin receptor = biological target: T1, Oxytocin receptor (Homo sapiens, UniProt P30559)
T1 sequence (P30559 whole entry): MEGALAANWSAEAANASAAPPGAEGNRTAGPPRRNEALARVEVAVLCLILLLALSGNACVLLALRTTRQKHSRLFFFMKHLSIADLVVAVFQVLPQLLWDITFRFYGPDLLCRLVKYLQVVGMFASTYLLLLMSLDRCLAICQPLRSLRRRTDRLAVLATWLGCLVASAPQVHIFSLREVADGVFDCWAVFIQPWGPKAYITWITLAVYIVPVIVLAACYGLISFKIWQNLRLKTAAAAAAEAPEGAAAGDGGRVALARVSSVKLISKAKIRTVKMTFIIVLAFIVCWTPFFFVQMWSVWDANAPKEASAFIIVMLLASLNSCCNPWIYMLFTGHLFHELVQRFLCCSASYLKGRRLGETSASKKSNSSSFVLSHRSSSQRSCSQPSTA

[2] = biological target: Neuronal acetylcholine receptor subunit alpha-4 (Rattus norvegicus, UniProt P09483)
[3] = biological target: Neuronal acetylcholine receptor subunit alpha-4 (Homo sapiens, UniProt P43681)
Histamine H1 receptor [4] = biological target: Histamine H1 receptor (Homo sapiens, UniProt P35367)
[5] = biological target: Neuronal acetylcholine receptor subunit alpha-3 (Homo sapiens, UniProt P32297)
Histamine H1 receptor [6] = biological target: Histamine H1 receptor (Rattus norvegicus, UniProt P31390)
Histamine H2 receptor = Histamine H2 receptor (Homo sapiens, UniProt P25021)
Vasopressin V1b receptor = biological target: T2, Vasopressin V1b receptor (Homo sapiens, UniProt P47901)
T2 sequence (P47901 whole entry): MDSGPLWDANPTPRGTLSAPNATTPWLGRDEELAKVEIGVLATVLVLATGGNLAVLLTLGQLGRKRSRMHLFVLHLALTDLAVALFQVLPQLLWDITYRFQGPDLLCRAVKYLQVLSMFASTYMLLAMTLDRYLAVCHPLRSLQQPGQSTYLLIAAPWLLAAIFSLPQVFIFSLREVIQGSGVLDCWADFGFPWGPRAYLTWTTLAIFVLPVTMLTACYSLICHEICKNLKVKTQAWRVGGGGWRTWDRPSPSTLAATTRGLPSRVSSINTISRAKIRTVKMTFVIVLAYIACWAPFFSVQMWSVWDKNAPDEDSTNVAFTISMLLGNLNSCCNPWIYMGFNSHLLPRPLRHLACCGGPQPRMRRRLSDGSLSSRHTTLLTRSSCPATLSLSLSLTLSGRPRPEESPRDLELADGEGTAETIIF

[7] = biological target: Metabotropic glutamate receptor 5 (Rattus norvegicus, UniProt P31424)
[8] = biological target: Metabotropic glutamate receptor 6 (Rattus norvegicus, UniProt P35349)
[9] = biological target: Metabotropic glutamate receptor 4 (Rattus norvegicus, UniProt P31423)
[10] = biological target: Metabotropic glutamate receptor 1 (Rattus norvegicus, UniProt P23385)
[11] = biological target: Metabotropic glutamate receptor 8 (Rattus norvegicus, UniProt P70579)
[12] = biological target: Metabotropic glutamate receptor 2 (Rattus norvegicus) (UniProt P31421)

Sequence of Histamine H1 receptor (Rattus norvegicus, UniProt P31390) (P31390 whole entry): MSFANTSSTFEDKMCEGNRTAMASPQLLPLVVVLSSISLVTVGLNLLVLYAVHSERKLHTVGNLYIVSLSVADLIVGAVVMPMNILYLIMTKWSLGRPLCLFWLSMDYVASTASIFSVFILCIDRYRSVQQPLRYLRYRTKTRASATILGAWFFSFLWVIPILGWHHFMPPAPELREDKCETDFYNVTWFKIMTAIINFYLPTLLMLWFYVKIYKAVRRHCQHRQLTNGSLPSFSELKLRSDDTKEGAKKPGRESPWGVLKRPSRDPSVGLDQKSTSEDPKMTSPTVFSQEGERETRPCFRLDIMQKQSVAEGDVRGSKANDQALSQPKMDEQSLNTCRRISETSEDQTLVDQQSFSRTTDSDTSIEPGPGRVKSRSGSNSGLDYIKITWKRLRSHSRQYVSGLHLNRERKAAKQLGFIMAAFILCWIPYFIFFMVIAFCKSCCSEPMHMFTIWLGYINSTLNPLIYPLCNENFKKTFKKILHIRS
Sequence of 5-hydroxytryptamine receptor 1B (P28222 whole entry): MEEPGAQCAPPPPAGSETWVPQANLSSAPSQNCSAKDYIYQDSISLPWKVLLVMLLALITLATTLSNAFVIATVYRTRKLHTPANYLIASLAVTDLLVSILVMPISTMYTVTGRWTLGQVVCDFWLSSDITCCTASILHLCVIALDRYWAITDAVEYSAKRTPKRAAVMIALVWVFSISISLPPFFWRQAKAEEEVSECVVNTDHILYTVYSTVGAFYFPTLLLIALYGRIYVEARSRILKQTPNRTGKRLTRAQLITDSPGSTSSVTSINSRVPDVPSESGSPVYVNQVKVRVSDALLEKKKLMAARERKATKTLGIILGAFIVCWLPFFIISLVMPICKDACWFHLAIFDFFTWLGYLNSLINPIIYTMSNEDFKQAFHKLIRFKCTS
Sequence of Metabotropic glutamate receptor 1 (P23385 whole entry): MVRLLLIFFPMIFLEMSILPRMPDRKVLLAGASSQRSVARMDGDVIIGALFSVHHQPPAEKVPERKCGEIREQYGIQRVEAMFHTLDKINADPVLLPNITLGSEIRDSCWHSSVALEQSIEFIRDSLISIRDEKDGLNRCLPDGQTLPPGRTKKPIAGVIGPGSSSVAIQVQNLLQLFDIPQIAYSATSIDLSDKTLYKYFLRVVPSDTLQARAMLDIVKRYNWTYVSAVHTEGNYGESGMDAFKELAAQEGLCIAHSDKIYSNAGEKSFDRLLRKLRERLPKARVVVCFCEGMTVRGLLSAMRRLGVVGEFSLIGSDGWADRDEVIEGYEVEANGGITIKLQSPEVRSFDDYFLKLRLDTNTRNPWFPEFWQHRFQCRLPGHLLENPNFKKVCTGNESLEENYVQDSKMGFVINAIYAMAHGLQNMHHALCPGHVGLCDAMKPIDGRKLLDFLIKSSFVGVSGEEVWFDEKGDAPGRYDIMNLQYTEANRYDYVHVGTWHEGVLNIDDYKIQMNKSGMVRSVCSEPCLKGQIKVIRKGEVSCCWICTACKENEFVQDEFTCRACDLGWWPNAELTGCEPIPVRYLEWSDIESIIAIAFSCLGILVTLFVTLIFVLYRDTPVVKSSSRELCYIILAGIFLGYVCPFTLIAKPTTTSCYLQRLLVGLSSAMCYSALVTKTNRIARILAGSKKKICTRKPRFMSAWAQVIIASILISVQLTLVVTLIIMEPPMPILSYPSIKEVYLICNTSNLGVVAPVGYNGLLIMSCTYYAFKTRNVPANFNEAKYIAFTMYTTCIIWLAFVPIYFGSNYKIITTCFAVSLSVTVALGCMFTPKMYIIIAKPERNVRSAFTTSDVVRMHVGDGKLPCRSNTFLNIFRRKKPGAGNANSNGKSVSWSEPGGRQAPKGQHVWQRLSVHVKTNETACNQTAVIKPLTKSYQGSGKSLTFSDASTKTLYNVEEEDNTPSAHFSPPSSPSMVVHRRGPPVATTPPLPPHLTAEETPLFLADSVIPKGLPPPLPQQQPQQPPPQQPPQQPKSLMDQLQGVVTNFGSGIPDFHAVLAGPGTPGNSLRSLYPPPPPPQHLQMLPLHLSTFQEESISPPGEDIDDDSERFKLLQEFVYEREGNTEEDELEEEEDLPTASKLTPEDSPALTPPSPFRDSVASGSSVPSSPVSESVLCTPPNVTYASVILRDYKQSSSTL
Sequence of Neuronal acetylcholine receptor subunit alpha-3 (P32297 whole entry): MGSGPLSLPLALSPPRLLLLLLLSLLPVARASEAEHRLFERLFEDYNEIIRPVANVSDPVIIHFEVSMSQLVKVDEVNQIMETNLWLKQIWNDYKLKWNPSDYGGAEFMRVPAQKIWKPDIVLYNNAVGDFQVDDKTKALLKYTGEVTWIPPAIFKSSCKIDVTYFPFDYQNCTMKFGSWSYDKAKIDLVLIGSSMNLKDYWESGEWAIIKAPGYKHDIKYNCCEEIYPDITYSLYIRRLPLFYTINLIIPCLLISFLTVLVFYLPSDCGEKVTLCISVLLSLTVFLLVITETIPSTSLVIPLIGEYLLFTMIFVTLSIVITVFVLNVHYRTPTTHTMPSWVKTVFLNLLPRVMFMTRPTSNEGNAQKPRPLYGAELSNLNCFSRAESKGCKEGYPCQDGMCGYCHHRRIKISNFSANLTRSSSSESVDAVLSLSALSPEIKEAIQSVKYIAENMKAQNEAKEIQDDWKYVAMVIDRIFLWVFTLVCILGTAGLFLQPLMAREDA
Sequence of Metabotropic glutamate receptor 6 (P35349 whole entry): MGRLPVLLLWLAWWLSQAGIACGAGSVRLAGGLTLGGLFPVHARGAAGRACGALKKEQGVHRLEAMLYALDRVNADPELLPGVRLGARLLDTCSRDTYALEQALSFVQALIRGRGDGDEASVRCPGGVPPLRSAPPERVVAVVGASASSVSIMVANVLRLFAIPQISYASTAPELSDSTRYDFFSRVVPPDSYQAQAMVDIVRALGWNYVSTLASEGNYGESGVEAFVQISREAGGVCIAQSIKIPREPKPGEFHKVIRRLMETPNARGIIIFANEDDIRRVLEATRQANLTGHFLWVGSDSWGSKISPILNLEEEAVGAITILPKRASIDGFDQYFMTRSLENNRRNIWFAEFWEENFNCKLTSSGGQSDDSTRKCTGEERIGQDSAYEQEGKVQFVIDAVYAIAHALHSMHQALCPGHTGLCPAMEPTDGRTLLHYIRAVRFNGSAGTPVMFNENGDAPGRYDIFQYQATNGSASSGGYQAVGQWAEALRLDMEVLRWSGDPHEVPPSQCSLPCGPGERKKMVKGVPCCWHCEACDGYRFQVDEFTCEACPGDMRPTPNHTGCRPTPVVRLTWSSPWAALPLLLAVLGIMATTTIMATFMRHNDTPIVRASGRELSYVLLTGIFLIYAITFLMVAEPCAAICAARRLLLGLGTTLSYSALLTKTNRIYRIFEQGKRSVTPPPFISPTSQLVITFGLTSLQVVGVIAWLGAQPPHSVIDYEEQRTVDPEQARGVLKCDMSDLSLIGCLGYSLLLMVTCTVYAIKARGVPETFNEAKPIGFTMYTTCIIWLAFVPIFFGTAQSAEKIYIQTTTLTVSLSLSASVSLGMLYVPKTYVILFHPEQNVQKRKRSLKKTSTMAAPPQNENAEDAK
Sequence of Neuronal acetylcholine receptor subunit alpha-4 (Rattus norvegicus, UniProt P09483) (P09483 whole entry): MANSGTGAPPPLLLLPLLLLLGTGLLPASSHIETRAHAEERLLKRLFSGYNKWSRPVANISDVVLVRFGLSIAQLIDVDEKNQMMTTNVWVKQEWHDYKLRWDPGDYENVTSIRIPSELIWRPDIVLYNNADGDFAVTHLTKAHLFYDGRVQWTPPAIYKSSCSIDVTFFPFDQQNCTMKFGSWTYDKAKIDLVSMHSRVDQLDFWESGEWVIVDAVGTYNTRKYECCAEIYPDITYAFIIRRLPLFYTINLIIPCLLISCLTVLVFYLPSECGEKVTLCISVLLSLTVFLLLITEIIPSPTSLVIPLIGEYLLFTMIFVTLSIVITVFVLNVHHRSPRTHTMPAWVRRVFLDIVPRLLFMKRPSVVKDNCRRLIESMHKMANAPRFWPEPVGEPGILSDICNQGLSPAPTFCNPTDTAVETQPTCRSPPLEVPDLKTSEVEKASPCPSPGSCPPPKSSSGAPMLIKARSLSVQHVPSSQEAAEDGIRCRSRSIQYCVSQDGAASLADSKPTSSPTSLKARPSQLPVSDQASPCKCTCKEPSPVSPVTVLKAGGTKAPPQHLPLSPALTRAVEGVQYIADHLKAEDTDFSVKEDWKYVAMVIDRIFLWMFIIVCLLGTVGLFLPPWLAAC
Sequence of Histamine H1 receptor (Homo sapiens, UniProt P35367) (P35367 whole entry): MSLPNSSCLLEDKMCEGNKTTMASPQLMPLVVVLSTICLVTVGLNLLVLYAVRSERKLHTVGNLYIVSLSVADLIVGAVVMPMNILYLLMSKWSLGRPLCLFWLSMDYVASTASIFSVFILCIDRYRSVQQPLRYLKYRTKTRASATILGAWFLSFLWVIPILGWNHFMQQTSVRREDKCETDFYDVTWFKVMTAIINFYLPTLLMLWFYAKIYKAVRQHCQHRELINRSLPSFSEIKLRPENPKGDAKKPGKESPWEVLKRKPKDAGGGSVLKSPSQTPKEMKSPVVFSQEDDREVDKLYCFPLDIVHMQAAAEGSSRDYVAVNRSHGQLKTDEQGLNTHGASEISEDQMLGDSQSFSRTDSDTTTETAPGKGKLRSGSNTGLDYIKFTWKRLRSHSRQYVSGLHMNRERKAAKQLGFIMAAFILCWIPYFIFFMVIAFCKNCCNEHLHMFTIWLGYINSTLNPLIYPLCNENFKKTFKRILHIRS
Sequence of Histamine H2 receptor (P25021 whole entry): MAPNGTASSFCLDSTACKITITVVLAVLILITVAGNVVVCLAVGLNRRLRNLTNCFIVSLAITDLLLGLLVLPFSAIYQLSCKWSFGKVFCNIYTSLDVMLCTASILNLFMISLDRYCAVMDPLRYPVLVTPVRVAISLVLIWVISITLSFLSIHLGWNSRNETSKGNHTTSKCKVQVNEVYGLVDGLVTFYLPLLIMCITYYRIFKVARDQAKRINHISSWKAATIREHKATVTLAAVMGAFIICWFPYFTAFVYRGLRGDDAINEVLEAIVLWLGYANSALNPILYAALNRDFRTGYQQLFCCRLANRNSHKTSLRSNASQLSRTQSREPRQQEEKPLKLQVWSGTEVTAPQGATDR

| Structure (SMILES) | Ki (Histamine H4 receptor) | Ki [1] | Ki (Oxytocin receptor) | Ki [2] | Ki [3] | Ki (Histamine H1 receptor [4]) | Ki [5] | Ki (Histamine H1 receptor [6]) | Ki (Histamine H2 receptor) | Ki (Vasopressin V1b receptor) | EC50 [7] | EC50 [8] | EC50 [9] | EC50 [10] | EC50 [11] | EC50 [12] |
| --- | --- | --- | --- | --- | --- | --- | --- | --- | --- | --- | --- | --- | --- | --- | --- | --- |
| N[C@@H]1CCSC1=O [D-homocysteine thiolactone] | > 10 µM |  |  | > 10 µM | > 10 µM | > 10 µM | > 10 µM |  | > 10 µM |  |  |  |  |  |  |  |
| N[C@@H](CCS(=O)(=O)O)C(=O)O (racemic) |  | > 10 µM | > 10 µM |  |  |  |  | > 10 µM |  | > 10 µM |  |  |  |  |  |  |
| NC(CSSCC(N)C(=O)O)C(=O)O (centres undefined) [CAS_595] | > 10 µM | > 10 µM | > 10 µM | > 10 µM | > 10 µM | > 10 µM | > 10 µM | > 10 µM | > 10 µM | > 10 µM |  |  |  |  |  |  |
| N[C@@H](CS)C(=O)O [CAS_5862] | > 10 µM | > 10 µM | > 10 µM | > 10 µM | > 10 µM | > 10 µM | > 10 µM | > 10 µM | > 10 µM | > 10 µM |  |  |  |  |  |  |
| N[C@@H](CCS(=O)O)C(=O)O [L-homocysteine sulfinic acid] | > 10 µM | > 10 µM | > 10 µM | > 10 µM | > 10 µM | > 10 µM | > 10 µM | > 10 µM | > 10 µM | > 10 µM | 5.75 µM | 6.17 µM | > 10 µM | > 10 µM | > 10 µM | > 10 µM |
| N[C@H](CS(=O)(=O)O)C(=O)O [L-cysteic acid] | > 10 µM | > 10 µM | > 10 µM | > 10 µM | > 10 µM | > 10 µM | > 10 µM | > 10 µM | > 10 µM | > 10 µM | > 10 µM | > 10 µM | > 10 µM | > 10 µM | > 10 µM | > 10 µM |
| N[C@H]1CCSC1=O [NSC_134505] | > 10 µM |  |  | > 10 µM | > 10 µM | > 10 µM | > 10 µM |  | > 10 µM |  |  |  |  |  |  |  |

Other lines, results leading:

| Ki (Histamine H4 receptor) | Ki [1] | Ki (Oxytocin receptor) | Ki [2] | Ki [3] | Ki (Histamine H1 receptor [4]) | Ki [5] | Ki (Histamine H1 receptor [6]) | Ki (Histamine H2 receptor) | Ki (Vasopressin V1b receptor) | EC50 [7] | EC50 [8] | EC50 [9] | EC50 [10] | EC50 [11] | EC50 [12] | Structure (SMILES) |
| --- | --- | --- | --- | --- | --- | --- | --- | --- | --- | --- | --- | --- | --- | --- | --- | --- |
| > 10 µM | > 10 µM | > 10 µM | > 10 µM | > 10 µM | > 10 µM | > 10 µM | > 10 µM | > 10 µM | > 10 µM |  |  |  |  |  |  | N[C@H](CCS(=O)O)C(=O)O [D-homocysteine sulfinic acid] |
| > 10 µM | > 10 µM | > 10 µM | > 10 µM | > 10 µM | > 10 µM | > 10 µM | > 10 µM | > 10 µM | > 10 µM | > 10 µM | > 10 µM | > 10 µM | > 10 µM | > 10 µM | > 10 µM | NC(CS(=O)O)C(=O)O (centres undefined) [CAS_109] |
| > 10 µM | > 10 µM | > 10 µM | > 10 µM | > 10 µM | > 10 µM | > 10 µM | > 10 µM | > 10 µM | > 10 µM |  |  |  |  |  |  | N[C@H](CCS(=O)(=O)O)C(=O)O [D-homocysteic acid] |
| > 10 µM | > 10 µM | > 10 µM | > 10 µM | > 10 µM | > 10 µM | > 10 µM | > 10 µM | > 10 µM | > 10 µM |  |  |  |  |  |  | CSCC[C@@H](N)C(=O)O [CAS_6137] |
| > 10 µM | > 10 µM | > 10 µM | > 10 µM | > 10 µM | > 10 µM | > 10 µM | > 10 µM | > 10 µM | > 10 µM |  |  |  |  |  |  | N[C@@H](CCS)C(=O)O (racemic) [CAS_778] |
